Data on one compound can be found in patent publication US12427215B2, “Endoscope disinfectant” (Whiteley Corporation Pty Ltd, priority 2019, dated 2025).

The nature of the series: Solubility of surfactants in the base formulation of Example 12. It is filed as physicochemical. The following applies: base solution of water, dipotassium hydrogen phosphate, potassium hydroxide, benzotriazole; without hydrotrope. The procedure:
A base solution comprising 907.77 g deionised water, 46.22 g of anhydrous dipotassium hydrogen phosphate, 30.98 g of 48% w/w potassium hydroxide solution and 10.36 g benzotriazole was prepared. In the case of Surfadone LP100 and Makon NF12, these surfactants were insoluble in the base formulation, and so were solublised using the hydrotrope, Triton H66 (see formulations 12-D and 12-F).

Take `CCCCCCCCN1CCCC1=O` [Surfadone LP100, N-octyl-2-pyrrolidone]: the “solubility in the base formulation” value is “insoluble”.
